{
  "source": "patent US10716783B2",
  "about": "“Prolylhydroxylase/ATF4 inhibitors and methods of use for treating neural cell injury or death and conditions resulting therefrom” (CORNELL UNIVERSITY, priority 2013, dated 2020)",
  "key": {"[1]": {"test_system": "HIF PHDs", "test": "ODD-luciferase reporter mice, in vivo bioluminescence imaging and tissue lysates", "conditions": "for ODD-luciferase activity in brain: in vivo bioluminescence imaging, intraperitoneal; for ODD-luciferase activity in lysates from different brain regions: normalized to total protein, luminometer", "excerpt": "(§1) FIGS. 3A-3G. Validation of adaptoquin as a novel HIF PHD inhibitor. […] Under steady state conditions, activity of HIF PHD2 with its co-substrate 2-oxoglutarate involves two peaks that represent non-hydroxylated and hydroxylated peptide. The hydroxylated peptide disappears in the presence of HIF PHD2 inhibition by adaptoquin. […] The reporter contains the ODD domain of HIF-1 which confers HIF PHD regulated stability on it. It is expressed in all cells of the body, but is destabilized in the absence of HIF PHD inhibition and stabilized in its presence. Quantitative measurements confirm stability of the ODD-luc in brain, kidney and liver (FIGS. 3D and 3E.).\nTo identify HIF PHD inhibitors suitable for testing in ICH, the experiment first sought to identify which of the known HIF PHD inhibitors could penetrate the blood brain barrier to inhibit HIF PHD activity in the CNS. To monitor HIF PHD activity dynamically, the experiment utilized mice that had previously been engineered to ubiquitously express the oxygen degradation domain (ODD) of HIF-1α fused to firefly luciferase. The ODD domain contains proline 402 and 564, which are hydroxylated by the HIF PHDs to degrade HIF-1 or the ODD-luciferase. Accordingly, these mice have been used previously to track HIF PHD activity in diverse organs in vivo using in vivo bioluminescence imaging.\n(§2) To verify that the changes in light in the brain reflect parenchymal changes in ODD-luciferase levels rather than increases in changes in skin or dural ODD-luciferase, ODD-luciferase activity was measured normalized to total protein in lysates from distinct brain regions using a luminometer."}, "[2]": {"test_system": "intracerebral hemorrhage (autologous blood infusion)", "test": "Autologous blood infusion ICH in rats", "assay_type": "in vivo", "protocol": "FIGS. 4A-4N. Adaptoquin delivered post-injury reduces cell death and enhances functional recovery post injury in mice and rats. Adaptoquin's effects in mice are not associated with global shifts of iron out of the brain. FIG. 4A: Experimental design for schedule of delivery of adaptaquin post-ICH. 30 mg/kg was delivered post-injury and then daily for seven days during which behavioral analysis was done. Mice were sacrificed at day 7 for qPCR and Fluoro-jade staining. […] FIG. 4J: Protocol for adaptoquin treatment of rats with ICH. ICH is modeled by autologous blood infusion and not collagenase in these studies. Behavior is tracked by a single pellet reaching task out to 28 days, but the schedule of infusion is similar to what is used in mice-2 hrs post blood infusion and then daily out to seven days. Behavior is monitored before, from 9-11 days and from 25-28 days. […] FIG. 4L: Protocol for evaluating the total concentrations of iron and zinc in brain following ICH in vehicle and adaptoquin treated mice. FIGS. 4M, 4N: Pseudocolored sections of collagenase induced ICH in mice after 7 days. […] These studies are consistent with the notion that adaptoquin works by inhibiting a specific metalloenzyme rather than global movement of metal ions.\nTo determine whether adaptoquin could ameliorate outcomes using a distinct model of ICH in a distinct species, adaptoquin was tested it (30 mg/kg, intraperitoneal) in a model of autologous blood infusion in rats. Autologous blood infusion causes a narrower slit like lesion in the striatum than collagenase, but results in motor impairments out beyond 30 days. Adaptoquin (30 mg/kg) was administered two hours after autologous blood infusion and then daily for seven days."}, "[3]": {"molecular_target": "recombinant HIF PHD2 (Homo sapiens, UniProt Q9GZT9)", "sequence (Q9GZT9 whole entry)": "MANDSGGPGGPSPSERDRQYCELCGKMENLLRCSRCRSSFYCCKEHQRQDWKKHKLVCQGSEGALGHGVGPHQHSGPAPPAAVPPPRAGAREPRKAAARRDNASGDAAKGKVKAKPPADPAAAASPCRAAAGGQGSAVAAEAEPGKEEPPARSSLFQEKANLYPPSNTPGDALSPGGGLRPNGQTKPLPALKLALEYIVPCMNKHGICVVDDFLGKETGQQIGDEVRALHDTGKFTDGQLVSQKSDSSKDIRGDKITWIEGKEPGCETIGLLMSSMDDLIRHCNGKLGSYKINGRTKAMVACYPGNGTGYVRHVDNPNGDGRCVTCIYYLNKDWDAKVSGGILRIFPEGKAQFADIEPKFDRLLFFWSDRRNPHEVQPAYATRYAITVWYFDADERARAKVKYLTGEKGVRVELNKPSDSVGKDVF", "test": "Recombinant HIF PHD2 hydroxylation of HIF peptide, non-denaturing mass spectrometry", "assay_type": "biochemical", "excerpt": "as §1, §2"}},
  "note": "Entries after “also recorded” stand apart in the source; their conditions may differ. Like-named read-outs stand apart in the source and are kept apart here.",
  "data": [
    {"compound": "Oc1cccnc1NC(c1ccc(Cl)cc1)c1ccc2cccnc2c1O", "note": "(centres unmarked) [adaptoquin]", "values": [
      {"measurement": "Message levels of p21 waf1/cip1 in brain", "setting": "[1]; adaptoquin 30 mg/kg", "result": "increased message levels of p21 waf1/cip1"},
      {"measurement": "ODD-luciferase activity in brain", "setting": "[1]; adaptoquin 30 mg/kg", "result": "significantly increase ODD-luciferase levels and activity"},
      {"measurement": "ODD-luciferase activity in brain", "setting": "[1]; adaptoquin 30 mg/kg, listed as Adaptoquin", "result": "inhibits the HIF PHDs in brain in a dose dependent fashion"},
      {"measurement": "ODD-luciferase activity in lysates from different brain regions", "setting": "[1]", "result": "An increase in activity"},
      {"measurement": "ODD-luciferase activity in lysates from different brain regions", "setting": "[1]; listed as Adaptoquin", "result": "dose dependent increases throughout the brain"},
      {"measurement": "Body weight", "setting": "[2]; 30 mg/kg i.p.", "result": "no significant changes"},
      {"measurement": "Glucose levels", "setting": "[2]; 30 mg/kg i.p.", "result": "no significant changes"},
      {"measurement": "Temperature", "setting": "[2]; 30 mg/kg i.p.", "result": "no significant changes"},
      {"measurement": "Single pellet reaching task (percent correct)", "setting": "[2]; 30 mg/kg i.p. 2 h after blood infusion then daily for seven days, later time points", "result": "significant improvements in percent correct; also recorded: improves single pellet reaching"},
      {"measurement": "Inhibition of recombinant HIF PHD2 activity (hydroxylation of HIF peptide)", "setting": "[3]", "result": "inhibit the ability of recombinant HIF prolyl hydroxylase 2 to hydroxylate an HIF peptide"},
      {"measurement": "Inhibition of recombinant HIF PHD2 activity (hydroxylation of HIF peptide)", "setting": "[3]; listed as Adpatoquin", "result": "inhibits activity of recombinant HIF PHD2"}
    ]}
  ]
}
